Measured values taken from US20140024527A1, “HERBICIDAL PYRAZINONES” (E I DU DE NEMOURS AND COMPANY, priority 2011, published 2014).

Assays:
Format in all cases: in vivo
[1] = system: barnyardgrass (Echinochloa crus-galli); experiment: Test A preemergence; details: 0 to 100 scale, 0 no effect, 100 complete control, approx. 10 days
Method in brief: (§1)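 Scores reflect visual plant response on a scale from 0 (no effect) to 100 (complete control) after approximately 10 greenhouse days. Pre- and postemergence sprays of solvent/surfactant-formulated chemical were applied at the same time, the latter at the one- to two-leaf stage.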

[2] = system: pigweed (Amaranthus retroflexus); experiment: Test A preemergence; details: 0 to 100 scale, 0 no effect, 100 complete control, approx. 10 days
Method in brief: as §1

corn (Zea mays) [3] = experiment: Test A preemergence; details: 0 to 100 scale, 0 no effect, 100 complete control, approx. 10 days
Method in brief: as §1

[4] = system: morningglory (Ipomoea spp.); experiment: Test A preemergence; details: 0 to 100 scale, 0 no effect, 100 complete control, approx. 10 days
Method in brief: as §1

[5] = system: wheat (Triticum aestivum); experiment: Test A preemergence; details: 0 to 100 scale, 0 no effect, 100 complete control, approx. 10 days
Method in brief: as §1

[6] = system: velvetleaf (Abutilon theophrasti); experiment: Test A preemergence; details: 0 to 100 scale, 0 no effect, 100 complete control, approx. 10 days
Method in brief: as §1

[7] = system: large crabgrass (Digitaria sanguinalis); experiment: Test A preemergence; details: 0 to 100 scale, 0 no effect, 100 complete control, approx. 10 days
Method in brief: as §1

[8] = system: giant foxtail (Setaria faberii); experiment: Test A preemergence; details: 0 to 100 scale, 0 no effect, 100 complete control, approx. 10 days
Method in brief: as §1

[9] = system: barnyardgrass (Echinochloa crus-galli); experiment: Test A postemergence; details: 0 to 100 scale, 0 no effect, 100 complete control, approx. 10 days
Method in brief: as §1

[10] = system: pigweed (Amaranthus retroflexus); experiment: Test A postemergence; details: 0 to 100 scale, 0 no effect, 100 complete control, approx. 10 days
Method in brief: as §1

corn (Zea mays) [11] = experiment: Test A postemergence; details: 0 to 100 scale, 0 no effect, 100 complete control, approx. 10 days
Method in brief: as §1

[12] = system: morningglory (Ipomoea spp.); experiment: Test A postemergence; details: 0 to 100 scale, 0 no effect, 100 complete control, approx. 10 days
Method in brief: as §1

[13] = system: wheat (Triticum aestivum); experiment: Test A postemergence; details: 0 to 100 scale, 0 no effect, 100 complete control, approx. 10 days
Method in brief: as §1

[14] = system: velvetleaf (Abutilon theophrasti); experiment: Test A postemergence; details: 0 to 100 scale, 0 no effect, 100 complete control, approx. 10 days
Method in brief: as §1

[15] = system: large crabgrass (Digitaria sanguinalis); experiment: Test A postemergence; details: 0 to 100 scale, 0 no effect, 100 complete control, approx. 10 days
Method in brief: as §1

[16] = system: giant foxtail (Setaria faberii); experiment: Test A postemergence; details: 0 to 100 scale, 0 no effect, 100 complete control, approx. 10 days
Method in brief: as §1

[17] = system: canarygrass (Phalaris minor); experiment: Test B postemergence; details: scale 0 to 100
Text: (§2) Seeds of plant species selected from blackgrass (Alopecurus myosuroides), downy bromegrass (Bromus tectorum), green foxtail (Setaria viridis), Italian ryegrass (Lolium multiflorum), wheat (Triticum aestivum), wild oat (Avena fatua), galium (Galium aparine), bermudagrass (Cynodon dactylon), Surinam grass (Brachiaria decumbens), cocklebur (Xanthium strumarium), corn (Zea mays), large crabgrass (Digitaria sanguinalis), woolly cupgrass (Eriochloa villosa), giant foxtail (Setaria faberii), goosegrass (Eleusine indica), johnsongrass (Sorghum halepense), kochia (Kochia scoparia), lambsquarters (Chenopodium album), morningglory (Ipomoea coccinea), yellow nutsedge (Cyperus esculentus), pigweed (Amaranthus retroflexus), ragweed (Ambrosia elatior), soybean (Glycine max), velvetleaf (Abutilon theophrasti), barley (Hordeum vulgare), canarygrass (Phalaris minor), chickweed (Stellaria media), deadnettle (Lamium amplexicaule) and windgrass (Apera spica-venti) were planted in pots containing Redi-Earth® planting medium (Scotts Company, Marysville, Ohio, USA) comprising spaghnum peat moss, vermiculite, wetting agent and starter nutrients and treated postemergence with test compounds formulated in a non-phytotoxic solvent mixture which included a surfactant. Plants ranged in height from 2 to 18 cm (1- to 4-leaf stage).
(§3) Treated plants and controls were maintained in a greenhouse for 13 to 15 days, after which time all species were compared to controls and visually evaluated. Plant response ratings, summarized in Table B, are based on a scale of 0 to 100 where 0 is no effect and 100 is complete control. A dash (-) response means no test result.

[18] = system: Italian ryegrass (Lolium multiflorum); experiment: Test B postemergence; details: scale 0 to 100
Text: as §2, §3

wild oat (Avena fatua) = experiment: Test B postemergence; details: scale 0 to 100
Text: as §2, §3

[19] = system: morningglory (Ipomoea coccinea); experiment: Test B postemergence; details: scale 0 to 100
Text: as §2, §3

barley (Hordeum vulgare) = experiment: Test B postemergence; details: scale 0 to 100
Text: as §2, §3

[20] = system: woolly cupgrass (Eriochloa villosa); experiment: Test B postemergence; details: scale 0 to 100
Text: as §2, §3

[21] = system: bermudagrass (Cynodon dactylon); experiment: Test B postemergence; details: scale 0 to 100
Text: as §2, §3

[22] = system: downy bromegrass (Bromus tectorum); experiment: Test B postemergence; details: scale 0 to 100
Text: as §2, §3

Compound: COCCn1c(-c2cccc(F)c2)c(Cl)nc(C(=O)C2=C(O)CCCC2=O)c1=O [Compound 4, 5-chloro-6-(3-fluorophenyl)-3-[(2-hydroxy-6-oxo-1-cyclohexen-1-yl)carbonyl]-1-(2-methoxyethyl)-2(1H)pyrazinone]
- Plant response rating, Barnyardgrass ([1]; 125 g ai/ha): 0
- Plant response rating, Barnyardgrass ([1]; 500 g ai/ha): 70
- Plant response rating, Pigweed ([2]; 125 g ai/ha): 60
- Plant response rating, Pigweed ([2]; 500 g ai/ha): 100
- Plant response rating, Corn (corn (Zea mays) [3]; 125 g ai/ha): 0
- Plant response rating, Corn (corn (Zea mays) [3]; 500 g ai/ha): 0
- Plant response rating, Morningglory ([4]; 125 g ai/ha): 10
- Plant response rating, Morningglory ([4]; 500 g ai/ha): 70
- Plant response rating, Wheat ([5]; 125 g ai/ha): 0
- Plant response rating, Wheat ([5]; 500 g ai/ha): 0
- Plant response rating, Velvetleaf ([6]; 125 g ai/ha): 40
- Plant response rating, Velvetleaf ([6]; 500 g ai/ha): 90
- Plant response rating, Crabgrass, Large ([7]; 125 g ai/ha): 80
- Plant response rating, Crabgrass, Large ([7]; 500 g ai/ha): 100
- Plant response rating, Foxtail, Giant ([8]; 125 g ai/ha): 0
- Plant response rating, Foxtail, Giant ([8]; 500 g ai/ha): 30
- Plant response rating, Barnyardgrass ([9]; 125 g ai/ha): 60
- Plant response rating, Barnyardgrass ([9]; 500 g ai/ha): 100
- Plant response rating, Pigweed ([10]; 125 g ai/ha): 80
- Plant response rating, Pigweed ([10]; 500 g ai/ha): 100
- Plant response rating, Corn (corn (Zea mays) [11]; 125 g ai/ha): 0
- Plant response rating, Corn (corn (Zea mays) [11]; 500 g ai/ha): 40
- Plant response rating, Morningglory ([12]; 125 g ai/ha): 90
- Plant response rating, Morningglory ([12]; 500 g ai/ha): 100
- Plant response rating, Wheat ([13]; 125 g ai/ha): 0
- Plant response rating, Wheat ([13]; 500 g ai/ha): 10
- Plant response rating, Velvetleaf ([14]; 125 g ai/ha): 100
- Plant response rating, Velvetleaf ([14]; 500 g ai/ha): 100
- Plant response rating, Crabgrass, Large ([15]; 125 g ai/ha): 80
- Plant response rating, Crabgrass, Large ([15]; 500 g ai/ha): 100
- Plant response rating, Foxtail, Giant ([16]; 125 g ai/ha): 30
- Plant response rating, Foxtail, Giant ([16]; 500 g ai/ha): 70
- Plant response rating, Canarygrass ([17]; 31 g ai/ha): 25
- Plant response rating, Canarygrass ([17]; 62 g ai/ha): 40
- Plant response rating, Canarygrass ([17]; 125 g ai/ha): 50
- Plant response rating, Canarygrass ([17]; 250 g ai/ha): 60
- Plant response rating, Ryegrass, Italian ([18]; 31 g ai/ha): 0
- Plant response rating, Ryegrass, Italian ([18]; 62 g ai/ha): 0
- Plant response rating, Ryegrass, Italian ([18]; 125 g ai/ha): 0
- Plant response rating, Ryegrass, Italian ([18]; 250 g ai/ha): 10
- Plant response rating, Oat, Wild (wild oat (Avena fatua); 31 g ai/ha): 5
- Plant response rating, Oat, Wild (wild oat (Avena fatua); 62 g ai/ha): 30
- Plant response rating, Oat, Wild (wild oat (Avena fatua); 125 g ai/ha): 30
- Plant response rating, Oat, Wild (wild oat (Avena fatua); 250 g ai/ha): 40
- Plant response rating, Morningglory ([19]; 31 g ai/ha): 90
- Plant response rating, Morningglory ([19]; 62 g ai/ha): 95
- Plant response rating, Morningglory ([19]; 125 g ai/ha): 95
- Plant response rating, Morningglory ([19]; 250 g ai/ha): 95
- Plant response rating, Barley (barley (Hordeum vulgare); 31 g ai/ha): 0
- Plant response rating, Barley (barley (Hordeum vulgare); 62 g ai/ha): 20
- Plant response rating, Barley (barley (Hordeum vulgare); 125 g ai/ha): 20
- Plant response rating, Barley (barley (Hordeum vulgare); 250 g ai/ha): 30
- Plant response rating, Cupgrass, Woolly ([20]; 31 g ai/ha): 50
- Plant response rating, Cupgrass, Woolly ([20]; 62 g ai/ha): 70
- Plant response rating, Cupgrass, Woolly ([20]; 125 g ai/ha): 75
- Plant response rating, Cupgrass, Woolly ([20]; 250 g ai/ha): 85
- Plant response rating, Bermudagrass ([21]; 31 g ai/ha): 5
- Plant response rating, Bermudagrass ([21]; 62 g ai/ha): 20
- Plant response rating, Bermudagrass ([21]; 125 g ai/ha): 35
- Plant response rating, Bermudagrass ([21]; 250 g ai/ha): 40
- Plant response rating, Bromegrass, Downy ([22]; 31 g ai/ha): 0
- Plant response rating, Bromegrass, Downy ([22]; 62 g ai/ha): 10
- Plant response rating, Bromegrass, Downy ([22]; 125 g ai/ha): 15
- Plant response rating, Bromegrass, Downy ([22]; 250 g ai/ha): 15
